Laboratory results reported in patent publication US9957539B2, “Method for using hexenol glycosyl transferase” (SUNTORY HOLDINGS LIMITED, priority 2013, dated 2018).

Assays:
CsUGTC30 = assay: Specificity of CsUGTC30 for sugar acceptors (relative activity of transglucosylation); format: biochemical, Camellia sinensis; settings: UDP-glucose as donor; 30 minutes at 30° C.; activity on geraniol is set to 100% (FIG. 8)
From the text: Standard enzyme reaction conditions are as follows.
Next, to clarify the substrate specificity of CsUGTC30, geraniol, linalool, eugenol, benzyl alcohol, 2-phenylethanol, quercetin and cyanidin were each used as a substrate to determine the relative activity of transglucosylation with the above enzyme and under the above enzyme reaction conditions.

[1] = Hexenol glycosylation activity of recombinant UGT enzymes (enzyme reaction with UDP-glucose, LC-MS analysis of product); format: biochemical; settings: 2 mM UDP-glucose, […] sugar acceptor substrate, pH 7.5, 30° C. for 1 hour; product detected by LC-MS against reference standard
Experimental: Standard enzyme reaction conditions are as follows. […] The enzyme reaction solution (5 μl) was analyzed by LC-MS under the following conditions. LC Conditions • Column: CAPCELL PAK C18-UG120 (2.0 mm I.D.×150 mm) • Mobile phase: A: […] (m/z 261, 297, 307) Since green leaf volatiles are found in a wide range of land plants, a search was conducted for UGTs causing glycosylation of green leaf volatiles derived from other plant lines on the basis of homology with the sequence of Camellia sinensis Cs_UGT_C30.

Molecule | relative transglucosylation activity of CsUGTC30 on the substrate (sugar acceptor) (CsUGTC30) | glycosylation activity on cis-3-hexenol (generation of cis-3-hexenyl monoglucoside) [1]
OCCc1ccccc1 [2-phenylethanol] | transglycosylation activity | 
OCc1ccccc1 [benzyl alcohol] | second highest activity | 
C=CCc1ccc(O)c(OC)c1 [eugenol] | second highest activity | 
CC(C)=CCC/C(C)=C/CO [geraniol] | highest activity | 
CC/C=C\CCO [hexenol, cis-3-hexen-1-ol] | at the same level | 
C=CC(C)(O)CCC=C(C)C (stereo not drawn) [linalool] | transglycosylation activity | 
O=c1c(O)c(-c2ccc(O)c(O)c2)oc2cc(O)cc(O)c12 [quercetin] | no transglycosylation activity | 
Cs_UGT_C30: Camellia sinensis glycosyltransferase, amino acid sequence SEQ ID NO: 2, expressed His-tagged in E. coli (protein, listed as Camellia sinensis, His tag) MGSRKQPHAVCVPFPAQGHINPMMQLAKLLHSRGFYITFVNTEFNHRRLLQSKGPEFLKGCADFQFESIPDGLPPSDRDATQDPPTLCIAMRDNCLDPFRVLLKKLNNNNNSIASRQVPGVTCVVSDGAMNFAMKAAEEAGIPEVQFWTASACGFMGYLHYPQLVQRGIFPFKDESFQSDGSLDTTIDWIPGMRNIRLKDMPSFIRTTDPNDILFNYLSEEVQNCLKASAIIFNTFDTLEHQVLQAIASKFHNIYTIGPLSLLSKQVIDGEFKSLNSSLWKEDTKCLQWLDTKEPNSVVYVNYGSITVMTDQHLKEFAWGLANSKHPFLWIVRPDIVMGDSAILPEHFVEETKDRGLLVSWCPQEQVLSHPSIGVFLTHCGWNSTLESICGGVPIICWPFFAEQQTNCRYACTEWGIGMEVNHDVKRNEIVALINEMLEGDKGKQMRKKALKLKKEAEEATDVGGLSYNNFDRLIKEALHYCEQY |  | glycosylation activity on cis-3-hexenol
Cs_UGT85like_C1: Camellia sinensis glycosyltransferase, amino acid sequence SEQ ID NO: 4, expressed His-tagged in E. coli (protein, listed as Camellia sinensis, His tag) MAKLHFFFFPVMAQGHMIPTLDMAKLFASHGVKATIITTPLNAPYFTRSIQRTHHSISVLTLKFPAVEAGLVEGCESVDQIPSPDMLPNFLKATTMLQDPLERLLQDSRPDCLVADMFFPWATHVAAKFNIPRLVFHGTGFFTLCASENLRLYMPQASVSSDDEPFLVPNLPHKIMLTRSQLPENERCDTETGLSTMLKQVKETELTSYGVIVNSFYELEPDYADYYRNVLGRRAWHIGPVSLCNREVEDKAQRGKESAIDEVECLKWLNSKKPNSVIYVCFGSLGDFTASQLFELAMGLEASGQQFIWVVRKGKIEEDGDEKRLPEEFEERMKDKGLIIRGWAPQVLILDHESIGGFVTHCGWNSILEGVCAGVPMVTWPRFAEQFYNEKLVTEVLRIGVGVGARQWQIGAGSDCIKGETIAKAVKRVMEAGEEAEGMRTRARAAKDMAKKAVEEGGSSYSDLNALIQEMSS |  | glycosylation activity on cis-3-hexenol
